Some test systems named below: UO-31 renal; EKVX NSCLC; HOP-18 NSCLC; ACHN renal; HCC-2998 colon; NCI-H226 lung; LXFL 529 NSCLC; SNB-75 CNS; SF-295 CNS; NCI/ADR-RES ovarian.
Test in all cases: growth of human tumour cells (NCI), 48 h

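Dose response: 5 concentrations. Exposure: 48 h. Format: 96-well plates. Endpoint: linear interpolation; highest concentration if not reached. Abbreviation: GI50, concentration required for 50% inhibition of growth. Definition used: TGI = concentration required for complete inhibition of growth.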 Bounds are passed on as bounds.

`COc1cccc(C(=O)N2CCc3ccccc32)c1OC`: the TGI in the assay with UO-31 renal, with EKVX NSCLC, with HOP-18 NSCLC, in the assay on ACHN renal, with HCC-2998 colon and with NCI-H226 lung was more than 100 µM throughout. In addition, the TGI in the assay on LXFL 529 NSCLC, in the assay on SNB-75 CNS and in the assay on SF-295 CNS was more than 100 µM in each case.
Regarding `O=C1C=C(Br)C(=O)C12CCc1ccccc12` (stereo not drawn), the TGI in the assay with UO-31 renal turned out to be 33 µM; in the assay on EKVX NSCLC, 62 µM; in the assay with HOP-18 NSCLC, 16.1 µM; with ACHN renal, 24.7 µM; with HCC-2998 colon, 40.2 µM; with NCI/ADR-RES ovarian it was 81.3 µM. Further, the TGI stood at 35.8 µM in the assay on NCI-H226 lung, 13.2 µM with LXFL 529 NSCLC, 29.5 µM in the assay with SNB-75 CNS and 36.6 µM in the assay on SF-295 CNS.
For the compound `COc1ccc(C(N)=O)cc1N=NN(C)C`, the TGI in the assay with UO-31 renal, in the assay on EKVX NSCLC, in the assay with HOP-18 NSCLC, with ACHN renal, in the assay with HCC-2998 colon and in the assay with NCI-H226 lung was more than 100 µM in each case. Moreover, the TGI in the assay on LXFL 529 NSCLC, in the assay on SNB-75 CNS and in the assay on SF-295 CNS was more than 100 µM throughout.
As for `CC(=O)O[C@H]1CC[C@@]2(C)C(=CC[C@H]3C4=CC=C(C(C)=O)[C@@]4(C)CCC32)C1` (stereo partly drawn), the TGI is more than 100 µM in the assay with UO-31 renal; more than 100 µM in the assay on EKVX NSCLC; more than 100 µM with HOP-18 NSCLC; more than 100 µM with ACHN renal; more than 100 µM in the assay with HCC-2998 colon; 71.4 µM with NCI-H226 lung. In addition, the TGI with LXFL 529 NSCLC, in the assay on SNB-75 CNS and in the assay with SF-295 CNS was more than 100 µM throughout.
As to `COc1cc2noc(-c3ccccc3)c2cc1OC`, the TGI in the assay with UO-31 renal, with HOP-18 NSCLC, in the assay on ACHN renal, in the assay with HCC-2998 colon, in the assay on NCI-H226 lung and with LXFL 529 NSCLC was more than 100 µM throughout. Further, the TGI with SNB-75 CNS was determined as 35.4 µM; in the assay on SF-295 CNS it was 38.6 µM.
On to `CC(=O)OCCOCNC(=S)N/N=C(\C)c1cnc2ccccc2n1`, for which the TGI in the assay with UO-31 renal, with EKVX NSCLC, in the assay with HOP-18 NSCLC, with ACHN renal, in the assay on HCC-2998 colon and with NCI-H226 lung was more than 100 µM in each case. For the same compound, the TGI in the assay on LXFL 529 NSCLC, in the assay on SNB-75 CNS and with SF-295 CNS was more than 100 µM throughout.
In the case of `COc1c(C(=O)O)oc2c(OC)cccc12`, the TGI with UO-31 renal, in the assay with EKVX NSCLC, in the assay with HOP-18 NSCLC, with ACHN renal, in the assay with HCC-2998 colon and in the assay on NCI-H226 lung was more than 100 µM throughout. The TGI in the assay with LXFL 529 NSCLC, in the assay with SNB-75 CNS and with SF-295 CNS was more than 100 µM throughout.
Turning to `Cn1c(=O)nc2n(-c3cccc(F)c3)c3ccccc3nc-2c1=O`, the TGI in the assay with UO-31 renal was more than 100 µM; in the assay with EKVX NSCLC, 32.5 µM; with HOP-18 NSCLC it was more than 100 µM; in the assay with ACHN renal it was 68.2 µM; in the assay with HCC-2998 colon, 39.6 µM; in the assay with NCI-H226 lung, more than 100 µM. Besides, the TGI with LXFL 529 NSCLC was more than 100 µM; with SNB-75 CNS, 78.5 µM; in the assay on SF-295 CNS it was more than 100 µM.
On to `CN(C)C(N)=NC#N`, for which the TGI in the assay on UO-31 renal, with EKVX NSCLC, in the assay on HOP-18 NSCLC, in the assay with ACHN renal, in the assay on HCC-2998 colon and in the assay on NCI-H226 lung was more than 100 µM in each case. The TGI in the assay on LXFL 529 NSCLC, in the assay with SNB-75 CNS and in the assay on SF-295 CNS was more than 100 µM in each case.
For `COc1cccc(NC(=O)CC(=O)N2N=C(N(CCC#N)c3ccccc3C)CC2c2ccccc2)c1` (stereo not drawn), the TGI in the assay on UO-31 renal, in the assay with EKVX NSCLC, with HOP-18 NSCLC, with ACHN renal, in the assay with HCC-2998 colon and in the assay with NCI-H226 lung was more than 100 µM each time. The TGI with LXFL 529 NSCLC, with SNB-75 CNS and with SF-295 CNS was more than 100 µM each time.
Turning to `C(CCC[Te][Te]CCCCCCOC1CCCCO1)CCOC1CCCCO1` (stereo not drawn), the TGI came to 77.3 µM with UO-31 renal; 51.4 µM with HOP-18 NSCLC; 22.7 µM with ACHN renal; 27.9 µM with HCC-2998 colon; 21.1 µM in the assay on LXFL 529 NSCLC; 33.7 µM with SNB-75 CNS. The same compound showed a TGI in the assay with SF-295 CNS of 32.1 µM.
Turning to `COC(=O)c1sc(C(=O)OC)c2c1CSC2`, the TGI in the assay on UO-31 renal, with EKVX NSCLC, in the assay on HOP-18 NSCLC, in the assay on ACHN renal, with HCC-2998 colon and with NCI/ADR-RES ovarian was more than 100 µM throughout. Moreover, the TGI in the assay on NCI-H226 lung is more than 100 µM; in the assay on LXFL 529 NSCLC, more than 100 µM; in the assay with SNB-75 CNS it was 57.7 µM; in the assay with SF-295 CNS it was more than 100 µM.
As for `COc1ccc2c(c1OC)C1=C(C2=O)c2cc3c(cc2CCN1)OCO3`, the TGI was more than 100 µM in the assay with UO-31 renal; more than 100 µM in the assay with EKVX NSCLC; more than 100 µM in the assay with HOP-18 NSCLC; more than 100 µM with ACHN renal; 75.5 µM in the assay on HCC-2998 colon; 9.58 µM with NCI-H226 lung. For the same compound, the TGI in the assay on LXFL 529 NSCLC was more than 100 µM; in the assay with SNB-75 CNS, 5.9 µM; in the assay on SF-295 CNS, more than 100 µM.
`Cc1c(C(=O)NCCO)[n+](=O)c2cc(Cl)ccc2n1[O-]`: the TGI in the assay with UO-31 renal, in the assay with EKVX NSCLC, with HOP-18 NSCLC, in the assay with ACHN renal, in the assay with HCC-2998 colon and in the assay with LXFL 529 NSCLC was more than 100 µM each time. Besides, the TGI in the assay with SNB-75 CNS and in the assay on SF-295 CNS was more than 100 µM in each case.
For `C1CCN(c2nsc(N3CCCCC3)n2)CC1`, the TGI with UO-31 renal, in the assay on EKVX NSCLC, in the assay on HOP-18 NSCLC, in the assay with ACHN renal, in the assay on HCC-2998 colon and in the assay on NCI-H226 lung was more than 100 µM each time. Further, the TGI in the assay with LXFL 529 NSCLC, in the assay with SNB-75 CNS and in the assay on SF-295 CNS was more than 100 µM in each case.
In the case of `CCOC(=O)C1(Cc2ccccc2)CCCCCN1` (stereo not drawn), the TGI in the assay with UO-31 renal, in the assay on EKVX NSCLC, in the assay on HOP-18 NSCLC, in the assay with ACHN renal, in the assay with HCC-2998 colon and in the assay with LXFL 529 NSCLC was more than 100 µM throughout. The TGI in the assay with SNB-75 CNS is 92.6 µM; with SF-295 CNS it was more than 100 µM.
In the case of `CCNC(=O)C#CC(=O)NCC`, the GI50 in the assay with UO-31 renal was more than 10 µM; with EKVX NSCLC, more than 10 µM; in the assay with HOP-18 NSCLC it was more than 10 µM; in the assay with ACHN renal it was more than 10 µM; in the assay with HCC-2998 colon, more than 10 µM; in the assay with NCI-H226 lung it was more than 100 µM. Further, the GI50 in the assay on LXFL 529 NSCLC, in the assay with SNB-75 CNS and in the assay on SF-295 CNS was more than 10 µM throughout. Moreover, the TGI with UO-31 renal, with EKVX NSCLC, in the assay on HOP-18 NSCLC, in the assay on ACHN renal, in the assay with HCC-2998 colon and with NCI-H226 lung was more than 100 µM in each case. Moreover, the TGI in the assay with LXFL 529 NSCLC, in the assay with SNB-75 CNS and with SF-295 CNS was more than 100 µM in each case.
For the compound `CCC(=O)C(C)C1=Nc2nnc(CCCCCCCc3nnc4n3C(=O)C(C(C)C(=O)CC)=N4)n2C1=O` (stereo not drawn), the TGI in the assay on UO-31 renal, in the assay with EKVX NSCLC, in the assay on HOP-18 NSCLC, in the assay on ACHN renal, with HCC-2998 colon and in the assay with NCI-H226 lung was more than 100 µM in each case. For the same compound, the TGI in the assay on LXFL 529 NSCLC, in the assay with SNB-75 CNS and in the assay with SF-295 CNS was more than 100 µM in each case.

Source of the values: PubChem BioAssay (NCI).
